Consider 13 compounds from US20250051356A1, “RIFABUTIN ANALOGS FOR THE TREATMENT OF DISEASE” (priority 2021, published 2025).

Converted amounts (≈) assume the structure as drawn. Read-outs that look alike come from different tables or passages of the source. Some results are limits rather than exact numbers.

Holding throughout (type): cell-based
Assay [1] deals with S. aureus (UAMS-1625 strain). Kind of assay: MIC by broth microdilution against S. aureus. Particulars: Staphylococcus aureus, read-out: MIC S. aureus. For orientation: Dilution methods test growth across graded concentrations, often in twofold steps.
For assay [2], the system named is A. baumannii (HUMC1 strain). Kind of assay: MIC by broth microdilution against A. baumannii in RPMI + 10% FCS. Particulars: Acinetobacter baumannii; HUMC1 strain; RPMI + 10% FCS; read-out: MIC A. baumannii.
The subject of assay [3] is M. abscessus subsp. abscessus ATCC 19977. The assay can be described thus: MIC against M. abscessus in Middlebrook 7H9 + ADC. Particulars: Mycobacteroides abscessus.
The test system of assay [4] is M. kansasii (ATCC 12478). Kind of assay: MIC against M. kansasii in CAMHB + ADC. Particulars: Mycobacterium kansasii, ATCC12478; ATCC 12478; CAMHB + ADC (5%); read-out: MIC M. kansasii.
Assay [5] has as its system M. xenopi (ATCC 19250). The assay can be described thus: MIC against M. xenopi in CAMHB + ADC. Particulars: Mycobacterium xenopi.
In assay [6] the test system is M. avium (ATCC 25291). The assay can be described thus: MIC against M. avium in CAMHB + ADC. Particulars: Mycobacterium avium, ATCC25291; ATCC 25291; CAMHB + ADC (5%); read-out: MIC M. avium.
The mark [7] stands for this setting: ATCC19977, read-out: MIC M. abscessus.
Where [8] appears, read: ATCC19977, ATCC 19977, 7H9 + ADC, read-out: MIC M. abscessus.
The mark [9] stands for this setting: ATCC19250, ATCC 19250, CAMHB + ADC (5%), read-out: MIC M. xenopi.

Consider `CO[C@H]1/C=C/O[C@@]2(C)Oc3c(C)c(O)c4c(c3C2=O)C2=NC3(CCN(CC(C)C)CC3)NC2=C(NC(=O)/C(C)=C\C=C\[C@H](C)[C@H](O)[C@@H](C)[C@@H](O)[C@@H](C)[C@H](OC(=O)CC(=O)N2CCC(Nc3ccncc3Cl)CC2)[C@@H]1C)C4=O` [Compound 110], for which the MIC (in general, the least concentration at which growth counts as inhibited) in assay [1] was 0.125 µg/mL (≈ 0.115 µM); in assay [2], 0.06 µg/mL; in assay [3] (setting [7]), 0.125 µg/mL; in assay [4], 0.008 µg/mL; in assay [5] (ATCC19250, read-out: MIC M. xenopi), 0.125 µg/mL; in assay [6], 0.25 µg/mL.

Regarding `CO[C@H]1/C=C/O[C@@]2(C)Oc3c(C)c(O)c4c(c3C2=O)C2=NC3(CCN(CC(C)C)CC3)NC2=C(NC(=O)/C(C)=C\C=C\[C@H](C)[C@H](O)[C@@H](C)[C@@H](O)[C@@H](C)[C@H](OC(=O)CC(=O)N2CCN(c3ccncc3)CC2)[C@@H]1C)C4=O` [Compound 116], the MIC was 0.06 µg/mL (≈ 0.0579 µM) in assay [1]; no more than 0.002 µg/mL in assay [2]; 0.25 µg/mL in assay [3] (setting [8]); 0.06 µg/mL in assay [4]; 1 µg/mL in assay [5] (setting [9]); 2 µg/mL in assay [6].

Turning to `CO[C@H]1/C=C/O[C@@]2(C)Oc3c(C)c(O)c4c(c3C2=O)C2=NC3(CCN(CC(C)C)CC3)NC2=C(NC(=O)/C(C)=C\C=C\[C@H](C)[C@H](O)[C@@H](C)[C@@H](O)[C@@H](C)[C@H](OC(=O)CC(=O)N2CCN(c3ncccn3)CC2)[C@@H]1C)C4=O` [Compound 117], the MIC in assay [1] is 0.03 µg/mL (≈ 0.0289 µM); in assay [2], no more than 0.002 µg/mL; in assay [3] (setting [8]) it was 0.125 µg/mL; in assay [4] it was 0.004 µg/mL; in assay [5] (setting [9]) it was 0.125 µg/mL; in assay [6], 0.25 µg/mL.

Take `CO[C@H]1/C=C/O[C@@]2(C)Oc3c(C)c(O)c4c(c3C2=O)C2=NC3(CCN(CC(C)C)CC3)NC2=C(NC(=O)/C(C)=C\C=C\[C@H](C)[C@H](O)[C@@H](C)[C@@H](O)[C@@H](C)[C@H](OC(=O)CC(=O)N2CCN(Cc3ccccn3)CC2)[C@@H]1C)C4=O` [Compound 118]: the MIC was 0.06 µg/mL (≈ 0.0571 µM) in assay [1]; no more than 0.002 µg/mL in assay [2]; 0.25 µg/mL in assay [3] (setting [8]); 0.03 µg/mL in assay [4]; 0.25 µg/mL in assay [5] (setting [9]); 2 µg/mL in assay [6].

`CO[C@H]1/C=C/O[C@@]2(C)Oc3c(C)c(O)c4c(c3C2=O)C2=NC3(CCN(CC(C)C)CC3)NC2=C(NC(=O)/C(C)=C\C=C\[C@H](C)[C@H](O)[C@@H](C)[C@@H](O)[C@@H](C)[C@H](OC(=O)CC(=O)N2CCN(Cc3ccncc3)CC2)[C@@H]1C)C4=O` [Compound 119]: the MIC is 0.016 µg/mL (≈ 0.0152 µM) in assay [1]; no more than 0.002 µg/mL in assay [2]; 0.25 µg/mL in assay [3] (setting [8]); 0.008 µg/mL in assay [4]; 0.25 µg/mL in assay [5] (setting [9]); 1 µg/mL in assay [6].

As for `CO[C@H]1/C=C/O[C@@]2(C)Oc3c(C)c(O)c4c(c3C2=O)C2=NC3(CCN(CC(C)C)CC3)NC2=C(NC(=O)/C(C)=C\C=C\[C@H](C)[C@H](O)[C@@H](C)[C@@H](O)[C@@H](C)[C@H](OC(=O)CC(=O)N2CCCN(C)CC2)[C@@H]1C)C4=O` [Compound 120], the minimum inhibitory concentration (MIC) in assay [1] is 0.06 µg/mL (≈ 0.0608 µM); in assay [2] it was 0.06 µg/mL; in assay [3] (setting [8]) it was 0.25 µg/mL; in assay [4], 0.25 µg/mL; in assay [5] (setting [9]) it was 1 µg/mL; in assay [6] it was 2 µg/mL.

`CO[C@H]1/C=C/O[C@@]2(C)Oc3c(C)c(O)c4c(c3C2=O)C2=NC3(CCN(CC(C)C)CC3)NC2=C(NC(=O)/C(C)=C\C=C\[C@H](C)[C@H](O)[C@@H](C)[C@@H](O)[C@@H](C)[C@H](OC(=O)CC(=O)N2CCCN(c3ccccn3)CC2)[C@@H]1C)C4=O` [Compound 122]: the MIC in assay [1] is 0.06 µg/mL (≈ 0.0571 µM); in assay [2], no more than 0.002 µg/mL; in assay [3] (setting [8]) it was 0.125 µg/mL; in assay [4], 0.002 µg/mL; in assay [5] (setting [9]) it was 0.03 µg/mL; in assay [6], 0.125 µg/mL.

As to `CO[C@H]1/C=C/O[C@@]2(C)Oc3c(C)c(O)c4c(c3C2=O)C2=NC3(CCN(CC(C)C)CC3)NC2=C(NC(=O)/C(C)=C\C=C\[C@H](C)[C@H](O)[C@@H](C)[C@@H](O)[C@@H](C)[C@H](OC(=O)CC(=O)N2CCCN(c3cccc(C(F)(F)F)n3)CC2)[C@@H]1C)C4=O` [Compound 123], the MIC in assay [1] came to 0.5 µg/mL (≈ 0.447 µM); in assay [2] it was 0.25 µg/mL; in assay [3] (setting [8]) it was 0.25 µg/mL; in assay [4], 0.008 µg/mL; in assay [5] (setting [9]), 0.125 µg/mL; in assay [6], 0.06 µg/mL.

Take `CO[C@H]1/C=C/O[C@@]2(C)Oc3c(C)c(O)c4c(c3C2=O)C2=NC3(CCN(CC(C)C)CC3)NC2=C(NC(=O)/C(C)=C\C=C\[C@H](C)[C@H](O)[C@@H](C)[C@@H](O)[C@@H](C)[C@H](OC(=O)CC(=O)N2CCCN(c3ncccn3)CC2)[C@@H]1C)C4=O` [Compound 124]: the minimal inhibitory concentration (MIC) in assay [1] is 0.03 µg/mL (≈ 0.0285 µM); in assay [2] it was no more than 0.002 µg/mL; in assay [3] (setting [8]), 0.125 µg/mL; in assay [4] it was 0.008 µg/mL; in assay [5] (setting [9]), 0.125 µg/mL; in assay [6], 0.125 µg/mL.

For `CO[C@H]1/C=C/O[C@@]2(C)Oc3c(C)c(O)c4c(c3C2=O)C2=NC3(CCN(CC(C)C)CC3)NC2=C(NC(=O)/C(C)=C\C=C\[C@H](C)[C@H](O)[C@@H](C)[C@@H](O)[C@@H](C)[C@H](OC(=O)CC(=O)N2CCCN(c3nccc(C(F)(F)F)n3)CC2)[C@@H]1C)C4=O` [Compound 125], the MIC in assay [1] is 0.5 µg/mL (≈ 0.447 µM); in assay [2], 0.25 µg/mL; in assay [3] (setting [8]), 0.125 µg/mL; in assay [4], 0.008 µg/mL; in assay [5] (setting [9]), 0.06 µg/mL; in assay [6], 0.03 µg/mL.

Take `CO[C@H]1/C=C/O[C@@]2(C)Oc3c(C)c(O)c4c(c3C2=O)C2=NC3(CCN(CC(C)C)CC3)NC2=C(NC(=O)/C(C)=C\C=C\[C@H](C)[C@H](O)[C@@H](C)[C@@H](O)[C@@H](C)[C@H](OC(=O)CC(=O)N2CCCN(Cc3ccccc3)CC2)[C@@H]1C)C4=O` [Compound 126]: the MIC in assay [1] is 0.125 µg/mL (≈ 0.118 µM); in assay [2], 0.004 µg/mL; in assay [3] (setting [7]), 0.125 µg/mL; in assay [4], 0.004 µg/mL; in assay [5] (setting [9]), 0.03 µg/mL; in assay [6] it was 0.03 µg/mL.

Consider `CO[C@H]1/C=C/O[C@@]2(C)Oc3c(C)c(O)c4c(c3C2=O)C2=NC3(CCN(CC(C)C)CC3)NC2=C(NC(=O)/C(C)=C\C=C\[C@H](C)[C@H](O)[C@@H](C)[C@@H](O)[C@@H](C)[C@H](OC(=O)CC(=O)N2CCCN(Cc3ccc(F)cc3)CC2)[C@@H]1C)C4=O` [Compound 127], for which the MIC was determined as 0.25 µg/mL (≈ 0.231 µM) in assay [1]; 0.06 µg/mL in assay [2]; 0.125 µg/mL in assay [3] (setting [8]); 0.008 µg/mL in assay [4]; 0.03 µg/mL in assay [5] (setting [9]); 0.125 µg/mL in assay [6].

As for `CO[C@H]1/C=C/O[C@@]2(C)Oc3c(C)c(O)c4c(c3C2=O)C2=NC3(CCN(CC(C)C)CC3)NC2=C(NC(=O)/C(C)=C\C=C\[C@H](C)[C@H](O)[C@@H](C)[C@@H](O)[C@@H](C)[C@H](OC(=O)CC(=O)N2CCCN(Cc3ccncc3)CC2)[C@@H]1C)C4=O` [Compound 128], the MIC in assay [1] is 0.06 µg/mL (≈ 0.0564 µM); in assay [2], no more than 0.002 µg/mL; in assay [3] (setting [8]) it was 0.25 µg/mL; in assay [4] it was 0.03 µg/mL; in assay [5] (setting [9]) it was 0.25 µg/mL; in assay [6], 0.5 µg/mL.
